The record followed here is patent US9957257B2, “Amide compounds as 5-HT4 receptor agonists” (SUVEN LIFE SCIENCES LIMITED, priority 2015, dated 2018).

Each structure is given as a SMILES string.

Data set [1] can be described thus: Rodent pharmacokinetic study. Conditions: male, Wistar, plasma, rat; for bioavailability: 3 mg/kg oral vs 1 mg/kg intravenous. Type of data set: in vivo, Male wistar rats. As for the experimental part:
Male wistar rats (225±25 grams) were used as experimental animals. Three to five animals were housed in each cage. Two days prior to dosing day, male wistar rats (225-250 grams) were anesthetized with isoflurane for surgical placement of jugular vein catheter. Animals were fasted overnight before oral dosing (p.o) and food pellets were allowed 2 hours post dosing, whereas during intravenous dosing food and water were provided as ad libitum. Three rats were dosed with test compounds (3 mg/kg) orally and intravenously (1 mg/kg).
At each time point blood was collected through jugular vein and immediately replenish with an equivalent volume of normal saline from freely moving rats. Collected blood was transferred into a labeled eppendr off containing 10 μL of heparin as anticoagulant. Typically blood samples were collected as following time points: Pre dose, 0.08 (only i.v.), 0.25, 0.5, 1, 2, 4, 6, 8, and 24 hours post dose-(n=3). Blood was centrifuged at 4000 rpm for 10 minutes. Plasma was prepared and stored frozen at −20° C. until analysis. The concentrations of the test compounds were quantified in plasma by qualified LC-MS/MS method using suitable extraction technique. The test compounds were quantified in the calibration range around 2-2000 ng/mL in plasma. Study samples were analyzed using calibration samples in the batch and quality control samples spread across the batch.
Pharmacokinetic parameters Cmax, Tmax, AUCt, T1/2 and Bioavailability were calculated by non-compartmental model using standard non-compartmental model by using WinNonLin 5.0.1 or Phoenix WinNonlin 6.2 version Software package.

In data set [2] the target is T1, recombinant human 5-HT4 receptor (Homo sapiens, UniProt Q13639).
T1 construct: expressed in transfected cells
The data set is described as follows: Determination of EC50 values for 5-HT4 receptor (CHO cells, pCRE-Luc reporter). The following applies: luciferase reporter, 4 hours incubation, read-out: 5-HT4 receptor agonistic binding in-vitro EC50. It is filed as cell-based. As to the method: A stable CHO cell line expressing recombinant human 5-HT4 receptor and pCRE-Luc reporter system was used for cell-based assay. The assay offers a non-radioactive based approach to determine binding of a compound to GPCRs. In this specific assay, the level of intracellular cyclic AMP, which is modulated by activation, or inhibition of the receptor is measured. The recombinant cells harbor luciferase reporter gene under the control of cAMP response element.
The above cells were grown in 96 well clear bottom white plates in Hams F12 medium containing 10% fetal bovine serum (FBS). Prior to the addition of compounds or standard agonist, cells were serum starved overnight. Increasing concentrations of test compounds were added in OptiMEM medium to the cells. The incubation was continued at 37° C. in CO2 incubator for 4 hours. Medium was removed and cells were washed with phosphate buffered saline. The cells were lysed and luciferase activity was measured in a Luminometer. Luminescence units were plotted against the compound concentrations using Graphpad software. EC50 values of the compounds were defined as the concentration required in stimulating the luciferase activity by 50%.
(A reporter such as luciferase makes a cellular process visible.)

Data set [3] in a line: Object recognition task model. Type of data set: in vivo, Male Wistar rats. The following applies: p.o. As for the experimental part:
The cognition enhancing properties of compounds of this invention were estimated by using this model.
Male Wistar rats (230-280 grams) were used as experimental animals. Four animals were housed in each cage. Animals were kept on 20% food deprivation before one day and given water ad libitum throughout the experiment and maintained on a 12 hours light/dark cycle. Also the rats were habituated to individual arenas for 1 hour in the absence of any objects.
One group of 12 rats received vehicle (1 mL/Kg) orally and another set of animals received compound of the formula (I) either orally or i.p., before one hour of the familiar (T1) and choice trial (T2).
The experiment was carried out in a 50×50×50 cm open field made up of acrylic. In the familiarization phase, (T1), the rats were placed individually in the open field for 3 minutes, in which two identical objects (plastic bottles, 12.5 cm height×5.5 cm diameter) covered in yellow masking tape alone (a1 and a2) were positioned in two adjacent corners, 10 cms from the walls. After 24 hours of the (T1) trial for long-term memory test, the same rats were placed in the same arena as they were placed in T1 trial. Choice phase (T2) rats were allowed to explore the open field for 3 minutes in presence of one familiar object (a3) and one novel object (b) (Amber color glass bottle, 12 cm high and 5 cm in diameter). Familiar objects presented similar textures, colors and sizes. During the T1 and T2 trial, explorations of each object (defined as sniffing, licking, chewing or having moving vibrissae whilst directing the nose towards the object at a distance of less than 1 cm) were recorded separately by stopwatch. Sitting on an object was not regarded as exploratory activity, however, it was rarely observed.
T1 is the total time spent exploring the familiar objects (a1+a2).
T2 is the total time spent exploring the familiar object and novel object (a3+b).
The object recognition test was performed as described by Behaviour Brain Research, 31 (1988), 47-59.

The target in another data set is T2, hERG (Homo sapiens, UniProt Q12809).
T2 construct: expressed in transfected cells; host or cells: HEK293 (hERG-HEK293)
The data set is described as follows: Automated hERG patch clamp assay. Conditions: hERG-HEK293 cells, whole cell patch clamp. It is filed as cell-based. As for the experimental part: To study the cardiac safety of test compounds using automated hERG patch clamp assay, hERG-HEK293 cells were grown to 70% confluency and were harvested using accumax. The cells were then suspended in complete media and were incubated at 37° C. and 5% CO2 for 30 minutes before using these cells for the whole cell patch clamp assay. Whole cell patch clamp recordings were conducted on Nanion's Patchliner using I-V protocol of voltage step from holding potential of −80 mV to +40 mV for 500 ms and then to test potential for 500 ms and back to holding potential of −80 mV. Pulses were elicited every 10 seconds. Each test compound concentration was incubated for 5 minutes. Data analysis was done by plotting the raw data using Igor Pro software and IC50 values were calculated. Cells with resistance >1 Gohms and tail currents of >200 pA were taken into consideration for data analysis. Quinidine was used as positive control.
(The hERG channel carries a current that helps repolarise heart muscle cells.)

Data set [4] can be described thus: Rodent brain penetration study. The following applies: male, Wistar, rat, 3 mg/kg, oral (gavage), read-out: Single dose Brain Penetration (Cb/Cp). Type of data set: in vivo, Male Wistar rats. As to the method:
Male Wistar rats (225±25 grams) were used as experimental animals. Three animals were housed in each cage. Animals were given water and food ad libitum throughout the experiment and maintained on a 12 hours light/dark cycle. Brain penetration was determined in discrete manner in rats. One day prior to dosing day, male wistar rats (225-250 grams) were acclimatized. After acclimatization the rats were grouped according to their weight. In each group, 3 animals were kept in individual cage and allowed free access to food and water. At each time point (0.50, 1 and 2 hours) n=3 animals were used. The test compounds were suitably preformulated and administered orally at (free base equivalent) 3 mg/kg. Blood samples were removed via, cardiac puncture by using isoflurane anesthesia. The animals were sacrificed to collect brain tissue. Plasma was separated and brain samples were homogenized and stored frozen at −20° C. until analysis. The concentrations of the test compounds in plasma and brain were determined using LC-MS/MS method. The test compounds were quantified in plasma and brain homogenate by qualified LC-MS/MS method using suitable extraction technique. The test compounds were quantified in the calibration range of 1-500 ng/mL in plasma and brain homogenate. Study samples were analyzed using calibration samples in the batch and quality control samples spread across the batch. Extent of brain-plasma ratio was calculated (Cb/Cp).

A further data set in a line: Radial arm maze. Conditions: p.o. It is filed as in vivo, rats. The source says:
The cognition enhancing properties of test compounds of this invention were estimated by using this model.
Radial arm maze consists of a central hub of 45 cm diameter. Each arm was of dimension 42.5×15×24 cm. The maze was elevated to a height of 1 m above the ground. The animals were placed on a restricted diet until they reached approximately 85% of their free feeding weight. During this diet restriction period animals were habituated to the novel feed (pellets). Once the rats reached approximately 85% of their free feeding weight, rats were habituated to the maze on the 1st and 2nd day. […] Animals were randomized on day 2. On the subsequent days the treatment was given as per the allotment. Each animal was introduced into the maze individually for a period of 10 minutes. The arms were baited only once and the animal had to learn the rule that repeated arm entries would not be rewarded. The trial ended once the rat had visited 16 arms or 10 minutes were over or all the pellets were eaten. The arm entries were recorded using the software. Once the trial was over the rat was removed and the maze was cleaned using soap water.

T2 sequence (Q12809 whole entry): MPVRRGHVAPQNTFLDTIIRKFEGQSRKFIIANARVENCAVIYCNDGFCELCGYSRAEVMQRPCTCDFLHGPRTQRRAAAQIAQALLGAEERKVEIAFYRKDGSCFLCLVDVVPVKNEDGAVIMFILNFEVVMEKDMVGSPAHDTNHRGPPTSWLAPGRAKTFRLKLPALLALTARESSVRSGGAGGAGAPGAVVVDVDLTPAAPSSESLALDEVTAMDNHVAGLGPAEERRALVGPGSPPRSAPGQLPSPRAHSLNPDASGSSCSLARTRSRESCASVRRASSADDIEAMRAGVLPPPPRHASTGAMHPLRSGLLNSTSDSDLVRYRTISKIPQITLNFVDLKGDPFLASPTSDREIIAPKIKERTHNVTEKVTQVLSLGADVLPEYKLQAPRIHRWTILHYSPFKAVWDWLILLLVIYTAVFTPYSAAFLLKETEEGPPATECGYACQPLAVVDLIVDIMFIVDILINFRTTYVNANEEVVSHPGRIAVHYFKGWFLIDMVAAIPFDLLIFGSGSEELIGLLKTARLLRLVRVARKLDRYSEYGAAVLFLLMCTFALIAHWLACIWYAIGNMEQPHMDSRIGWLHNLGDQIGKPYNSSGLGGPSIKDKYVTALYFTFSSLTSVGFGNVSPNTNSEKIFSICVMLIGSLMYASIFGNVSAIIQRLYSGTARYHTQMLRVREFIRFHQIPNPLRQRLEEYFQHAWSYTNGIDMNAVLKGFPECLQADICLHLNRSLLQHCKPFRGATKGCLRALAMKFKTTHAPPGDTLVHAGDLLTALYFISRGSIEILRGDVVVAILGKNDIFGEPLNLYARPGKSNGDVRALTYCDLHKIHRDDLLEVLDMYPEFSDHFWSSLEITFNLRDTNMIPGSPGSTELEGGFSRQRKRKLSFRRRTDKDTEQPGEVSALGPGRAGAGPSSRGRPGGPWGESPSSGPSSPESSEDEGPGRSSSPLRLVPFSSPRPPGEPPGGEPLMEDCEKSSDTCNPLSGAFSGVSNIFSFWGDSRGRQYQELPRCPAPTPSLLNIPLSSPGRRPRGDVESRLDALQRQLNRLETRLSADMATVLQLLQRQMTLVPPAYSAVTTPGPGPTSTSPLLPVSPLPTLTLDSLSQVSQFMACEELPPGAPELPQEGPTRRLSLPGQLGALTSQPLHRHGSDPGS
T1 sequence (Q13639 whole entry): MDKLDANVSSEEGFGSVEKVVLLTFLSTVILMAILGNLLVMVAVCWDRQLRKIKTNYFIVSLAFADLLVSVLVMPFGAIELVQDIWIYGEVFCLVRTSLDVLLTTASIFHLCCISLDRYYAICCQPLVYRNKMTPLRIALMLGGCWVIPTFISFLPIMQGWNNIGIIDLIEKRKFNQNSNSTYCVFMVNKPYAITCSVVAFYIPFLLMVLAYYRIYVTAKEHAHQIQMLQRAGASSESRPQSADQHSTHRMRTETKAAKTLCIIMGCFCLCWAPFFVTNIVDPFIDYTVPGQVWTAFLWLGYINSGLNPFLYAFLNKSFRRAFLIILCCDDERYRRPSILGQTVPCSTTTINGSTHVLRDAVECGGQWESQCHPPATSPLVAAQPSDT

In data set [1] (1 mg/kg, intravenous (bolus)), `Cc1cc2c(N)c(Cl)cc(C(=O)NCC3(F)CCN(CC(C)(C)O)CC3)c2o1.O=C(O)C(O)C(O)C(=O)O` [Example 53, 4-Amino-5-chloro-2-methyl-N-{[4-fluoro-1-(2-hydroxy-2-methylpropyl)-4-piperidinyl]methyl}benzofuran-7-carboxamide L(+)-tartarate] showed an AUC(0-t) of 147 ± 17 ng·h/mL and a half-life of 0.8 h. This compound also gave a bioavailability in data set [1] of 27 ± 20%. For the same compound, in data set [1] (3 mg/kg, oral (gavage)), the AUC(0-t) is 250 ± 87 ng·h/mL, the concentration peaked (Cmax) at 182 ± 26 ng/mL, the Tmax turned out to be 0.33 h and the half-life was 1.6 h. Further, in data set [2], the EC50 fell in the range of 10.1 to 20 nM. For the same compound, in data set [3] (0.3 mg/kg), the “Exploration time mean ± S.E.M, Familiar object” value came to 8.24 ± 1.32 s; the “Exploration time mean ± S.E.M, Novel object” value is 15.98 ± 1.75 s; the Inference entry is given as “Active”. Moreover, the IC50 against hERG was greater than 10000 nM. The Kp in data set [4] is 2.53 ± 0.63.

For the compound `Nc1c(Cl)cc(C(=O)NCC2C3CN(CC4CCOCC4)CC23)c2c1CCCO2.O=C(O)C(O)C(O)C(=O)O` (stereo not drawn) [Example 3, 5-Amino-6-chloro-N-{[3-(tetrahydro-2H-pyran-4-ylmethyl)-3-azabicyclo[3.1.0]hex-6-yl]methyl}chroman-8-carboxamide L(+)-tartarate], in data set [1] (1 mg/kg, intravenous (bolus)), the AUC(0-t) amounted to 158 ± 7 ng·h/mL and the half-life is 1.9 h. Further, the bioavailability in data set [1] is 68 ± 22%. Moreover, in data set [1] (3 mg/kg, oral (gavage)), the AUC(0-t) was 324 ± 105 ng·h/mL, the Cmax came out at 131 ± 35 ng/mL, the Tmax came out at 0.42 h and the half-life was 1.6 h. In “Radial arm maze”, the “Reversal of Scopolamine Induced amnesia - Effective dose range” value is 0.03 mg/kg, p.o. In data set [3] (0.003 mg/kg), the “Exploration time mean ± S.E.M, Familiar object” value came to 9.9 ± 2.06 s; the “Exploration time mean ± S.E.M, Novel object” value turned out to be 17.58 ± 2.24 s; the Inference entry is on record as “Active”. The Kp in data set [4] amounted to 1.03 ± 0.02.

The term AUC(0-t) denotes the area under the concentration-time curve up to a stated or last time point. What is called half-life is how long it takes for the measured level to halve. A low value points to rapid decline. As usually defined, the bioavailability is dose-corrected exposure relative to a reference, in per cent. The low end stands for little systemic uptake, the high end for much systemic uptake. A word on the Cmax: it is the peak of the concentration-time curve. Usually Tmax stands for the time at which the peak concentration occurs. A word on the EC50: it is the concentration that produces a half-maximal response. As usually defined, the IC50 is the concentration that gives 50% inhibition.
